According to patent publication US20230372481A1 (priority 2020, published 2023):
Where two headings read alike, the source gives them in different places.

Legend:
[1] = tested on: CD45RA− memory T cells; assay type: cell-based, human; settings: for IFNγ production WITH IL15 X3, CD45RA− / IFNγ production WITH IL15 X3, CD45RA− CD3+ / IFNγ production WITH IL15 X3, CD45RA− CD3+ CD4+ / IFNγ production WITH IL15 X3, CD45RA− CD3+ CD8+ / FOLD INCREASE OF IFNγ PRODUCTION, CD45RA− / FOLD INCREASE OF IFNγ PRODUCTION, CD45RA− CD3+ / FOLD INCREASE OF IFNγ PRODUCTION, CD45RA− CD3+ CD4+ / FOLD INCREASE OF IFNγ PRODUCTION, CD45RA− CD3+ CD8+: three peptivators
[2] = tested on: CD45RA− memory T cells; experiment: Phenotypic characterization of CD45RA− memory T cells in the presence of IL-15 (Table 11); assay type: cell-based, human; settings: for Fold change CD127lowCD25+ (Treg): CD45RA−CD4+ subset
[3] = DAY 3 (72 hours) with IL-15 50 ng/ml
[4] = DAY 3, with minus without IL-15, three peptivators
[5] = O/N, with minus without IL-15, three peptivators
[6] = CD3+ subset, IL-15 for 72 hours
[7] = CD4+ subset, IL-15 for 72 hours
[8] = CD8+ subset, IL-15 for 72 hours
[9] = IL-15 72 hours vs control with no cytokine

IL15: cytokine fundamental for memory T cells that induces the activation, the proliferation and the survival of T cells
IFNγ production WITH IL15 X3, CD45RA− [1, 3]: 1.9
IFNγ production WITH IL15 X3, CD45RA− CD3+ [1, 3]: 1.7
IFNγ production WITH IL15 X3, CD45RA− CD3+ CD4+ [1, 3]: 1.5
IFNγ production WITH IL15 X3, CD45RA− CD3+ CD8+ [1, 3]: 2.7
IFNγ production W-WO, CD45RA− [1, 4]: 1.6
IFNγ production W-WO, CD45RA− CD3+ [1, 4]: 1.4
IFNγ production W-WO, CD45RA− CD3+ CD4+ [1, 4]: 1.1
IFNγ production W-WO, CD45RA− CD3+ CD8+ [1, 4]: 2.4
FOLD INCREASE OF IFNγ PRODUCTION, CD45RA− ([1]; DAY 3 with IL-15 vs without): 5.3 fold
FOLD INCREASE OF IFNγ PRODUCTION, CD45RA− CD3+ ([1]; DAY 3 with IL-15 vs without): 5.8 fold
FOLD INCREASE OF IFNγ PRODUCTION, CD45RA− CD3+ CD4+ ([1]; DAY 3 with IL-15 vs without): 3.8 fold
FOLD INCREASE OF IFNγ PRODUCTION, CD45RA− CD3+ CD8+ ([1]; DAY 3 with IL-15 vs without): 11.6 fold
IFNγ production WITH IL15 X3, CD45RA− ([1]; O/N with IL-15 50 ng/ml): 3.8
IFNγ production WITH IL15 X3, CD45RA− CD3+ ([1]; O/N with IL-15 50 ng/ml): 3.8
IFNγ production WITH IL15 X3, CD45RA− CD3+ CD4+ ([1]; O/N with IL-15 50 ng/ml): 3.8
IFNγ production WITH IL15 X3, CD45RA− CD3+ CD8+ ([1]; O/N with IL-15 50 ng/ml): 4.6
FOLD INCREASE OF IFNγ PRODUCTION, CD45RA− ([1]; O/N with IL-15 vs without): 19.2 fold
FOLD INCREASE OF IFNγ PRODUCTION, CD45RA− CD3+ ([1]; O/N with IL-15 vs without): 13.6 fold
FOLD INCREASE OF IFNγ PRODUCTION, CD45RA− CD3+ CD4+ ([1]; O/N with IL-15 vs without): 12.5 fold
FOLD INCREASE OF IFNγ PRODUCTION, CD45RA− CD3+ CD8+ ([1]; O/N with IL-15 vs without): 14.8 fold
IFNγ production W-WO, CD45RA− [1, 5]: 3.6
IFNγ production W-WO, CD45RA− CD3+ [1, 5]: 3.5
IFNγ production W-WO, CD45RA− CD3+ CD4+ [1, 5]: 3.5
IFNγ production W-WO, CD45RA− CD3+ CD8+ [1, 5]: 4.3
% Memory T cells, % CD45RA− ([1]; WITH IL15 PEPX3 72 hours): 84%
% Memory T cells, % CD45RA−CD3+ ([1]; WITH IL15 PEPX3 72 hours): 95.1%
% Memory T cells, % CD45RA−CD3+ CD4+ ([1]; WITH IL15 PEPX3 72 hours): 91.2%
% Memory T cells, % CD45RA−CD3+ CD8+ ([1]; WITH IL15 PEPX3 72 hours): 3.45%
% Memory T cells, % CD45RA− ([1]; WITH IL15 PEPX3 o/n): 97.7%
% Memory T cells, % CD45RA−CD3+ ([1]; WITH IL15 PEPX3 o/n): 94.9%
% Memory T cells, % CD45RA−CD3+ CD4+ ([1]; WITH IL15 PEPX3 o/n): 91%
% Memory T cells, % CD45RA−CD3+ CD8+ ([1]; WITH IL15 PEPX3 o/n): 6.23%
Fold change CD25+ (T cell activation marker) [2, 6]: 13.16
Fold change CD69+ (T cell activation marker) [2, 6]: 26
Fold change HLA-DR+ high (T cell activation marker) [2, 6]: 1.21
Fold change NKG2A+ (T cell exhaustion marker) [2, 6]: 0.77
Fold change PD1+ high (T cell exhaustion marker) [2, 6]: 3.43
Fold change CD25+ (T cell activation marker) ([2]; CD3+ subset, IL-15 o/n): 2.11
Fold change CD69+ (T cell activation marker) ([2]; CD3+ subset, IL-15 o/n): 3.82
Fold change HLA-DR+ high (T cell activation marker) ([2]; CD3+ subset, IL-15 o/n): 1.11
Fold change NKG2A+ (T cell exhaustion marker) ([2]; CD3+ subset, IL-15 o/n): 0.61
Fold change PD1+ high (T cell exhaustion marker) ([2]; CD3+ subset, IL-15 o/n): 1.43
Fold change CD25+ (T cell activation marker) [2, 7]: 9.88
Fold change CD69+ (T cell activation marker) [2, 7]: 27.82
Fold change HLA-DR+ high (T cell activation marker) [2, 7]: 1.22
Fold change NKG2A+ (T cell exhaustion marker) [2, 7]: 2.67
Fold change PD1+ high (T cell exhaustion marker) [2, 7]: 3.41
Fold change CD25+ (T cell activation marker) ([2]; CD4+ subset, IL-15 o/n): 2.12
Fold change CD69+ (T cell activation marker) ([2]; CD4+ subset, IL-15 o/n): 4.48
Fold change HLA-DR+ high (T cell activation marker) ([2]; CD4+ subset, IL-15 o/n): 0.97
Fold change NKG2A+ (T cell exhaustion marker) ([2]; CD4+ subset, IL-15 o/n): 0.39
Fold change PD1+ high (T cell exhaustion marker) ([2]; CD4+ subset, IL-15 o/n): 1.35
Fold change CD25+ (T cell activation marker) [2, 8]: 105
Fold change CD69+ (T cell activation marker) [2, 8]: 6.48
Fold change HLA-DR+ high (T cell activation marker) [2, 8]: 1.61
Fold change NKG2A+ (T cell exhaustion marker) [2, 8]: 1.23
Fold change PD1+ high (T cell exhaustion marker) [2, 8]: 2.97
Fold change CD25+ (T cell activation marker) ([2]; CD8+ subset, IL-15 o/n): 14.27
Fold change CD69+ (T cell activation marker) ([2]; CD8+ subset, IL-15 o/n): 2.10
Fold change HLA-DR+ high (T cell activation marker) ([2]; CD8+ subset, IL-15 o/n): 1.32
Fold change NKG2A+ (T cell exhaustion marker) ([2]; CD8+ subset, IL-15 o/n): 0.73
Fold change PD1+ high (T cell exhaustion marker) ([2]; CD8+ subset, IL-15 o/n): 1.51
Fold change CD127lowCD25+ (Treg) ([2]; IL-15 for 72 hours vs day 0 WO IL15): 7.88
Fold change CD127lowCD25+ (Treg) ([2]; IL-15 o/n vs day 0 WO IL15): 1.85
Fold time change of exhaustion marker NKG2A, CD45RA−CD3+ cells ([2]; IL-15 72 hours): 0.77 fold
Fold time change of exhaustion marker PD-1, CD45RA−CD3+ cells ([2]; IL-15 72 hours): 3.43 fold
Fold increase of activation marker CD25, CD45RA− CD3+ cells [2, 9]: 13.26 fold
Fold increase of activation marker CD69, CD45RA− CD3+ cells [2, 9]: 26 fold
